The record followed here is PubChem BioAssay (NCI).

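Five compound concentrations were applied to cells in 96-well plates for 48 hours; endpoints were derived by simple linear interpolation of the resulting dose-response curve. Definition used: TGI = concentration required for complete inhibition of growth.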 Where only a bound is given, the exact number is not on record here.

Test systems include UACC-257 melanoma; ACHN renal; IGROV1 ovarian; NCI-H226 lung; UACC-62 melanoma; DU-145 prostate; 786-0 renal; K-562 leukemia; LOX IMVI melanoma; UO-31 renal.
Assay in all cases: inhibition of tumour cell growth, NCI panel, 48 h

With `Cc1ccc(/C=C2\CN(C)CC3C(c4ccc(C)cc4)=C(C#N)C(=O)NC23)cc1` (centres undefined), the TGI with UACC-257 melanoma, in the assay with ACHN renal, in the assay on IGROV1 ovarian, in the assay with NCI-H226 lung, with UACC-62 melanoma and in the assay on DU-145 prostate was more than 50 µM in each case. Further, the TGI with 786-0 renal, in the assay on K-562 leukemia and with LOX IMVI melanoma was more than 50 µM each time.
Regarding `O/N=c1/ccn(O)c2ccccc12`, the TGI was 21 µM in the assay on UACC-257 melanoma; 2.67 µM in the assay with ACHN renal; 5.12 µM with IGROV1 ovarian; 7.14 µM in the assay on NCI-H226 lung; 2.53 µM in the assay with UACC-62 melanoma; 3.93 µM in the assay on UO-31 renal. Moreover, the TGI was 7.76 µM with DU-145 prostate, 10.3 µM with 786-0 renal, more than 19.9 µM with K-562 leukemia and 5.67 µM with LOX IMVI melanoma.
With `CCOc1cc(/C=N\N(C)C)cc(/C=N\N(C)C)c1O`, the TGI is more than 100 µM in the assay on UACC-257 melanoma; 56 µM in the assay on ACHN renal; more than 100 µM with NCI-H226 lung; more than 100 µM with UACC-62 melanoma; more than 100 µM in the assay with UO-31 renal; more than 100 µM in the assay with DU-145 prostate. Also, the TGI with 786-0 renal was more than 100 µM; in the assay with K-562 leukemia, more than 100 µM; with LOX IMVI melanoma it was 79.5 µM.
`CSCCC(NCc1c(O)ccc2ccc(=O)oc12)C(=O)O` (centres undefined): the TGI in the assay on UACC-257 melanoma, with ACHN renal, in the assay with IGROV1 ovarian, with NCI-H226 lung, in the assay on UACC-62 melanoma and in the assay on UO-31 renal was more than 100 µM throughout. The TGI with DU-145 prostate, in the assay on 786-0 renal, with K-562 leukemia and in the assay with LOX IMVI melanoma was more than 100 µM in each case.
With `COc1c(Cl)ccc(Cl)c1C(=O)NNC(=O)c1c(Cl)c(Cl)c(Cl)c(Cl)c1-c1nc2ccc(C(=O)c3ccccc3)cc2[nH]1`, the TGI in the assay with UACC-257 melanoma, with ACHN renal, in the assay with IGROV1 ovarian, in the assay on NCI-H226 lung, in the assay on UO-31 renal and with DU-145 prostate was more than 100 µM in each case. The TGI in the assay with 786-0 renal, with K-562 leukemia and in the assay with LOX IMVI melanoma was more than 100 µM in each case.
On to `CC(=O)OCCC1c2ccccc2-n2nc(-c3ccccc3)c(O)c21` (centres undefined), for which the TGI came to 32.5 µM with UACC-257 melanoma; 45.1 µM in the assay with ACHN renal; 64.4 µM in the assay with NCI-H226 lung; 30.8 µM in the assay with UO-31 renal; 41.1 µM in the assay with DU-145 prostate; 38.4 µM in the assay with 786-0 renal. The TGI with K-562 leukemia was determined as 37.7 µM; in the assay on LOX IMVI melanoma it was 27.4 µM.
Consider `N#C/C(=C1\N=C(c2ccccc2O)Oc2ccccc21)c1ccc([N+](=O)[O-])cc1`, for which the TGI in the assay on UACC-257 melanoma, in the assay with ACHN renal, with IGROV1 ovarian, in the assay on NCI-H226 lung, in the assay with UACC-62 melanoma and in the assay with UO-31 renal was more than 100 µM in each case. Besides, the TGI with DU-145 prostate, in the assay with 786-0 renal, with K-562 leukemia and with LOX IMVI melanoma was more than 100 µM each time.
Turning to `CCOC(=O)N1CCN(Cc2cc(=O)n3cc(C)ccc3n2)CC1`, the TGI in the assay on UACC-257 melanoma, in the assay with ACHN renal, with IGROV1 ovarian, in the assay on NCI-H226 lung, in the assay on UACC-62 melanoma and with UO-31 renal was more than 100 µM each time. The TGI with DU-145 prostate, in the assay with 786-0 renal, in the assay with K-562 leukemia and in the assay on LOX IMVI melanoma was more than 100 µM throughout.
Turning to `O=C(NCCN1C(=O)CN=C(c2ccc(Cl)cc2)c2cc(Cl)ccc21)OCc1ccccc1`, the TGI with UACC-257 melanoma is 34.1 µM; in the assay with ACHN renal, 32.1 µM; with IGROV1 ovarian it was 37.8 µM; in the assay with NCI-H226 lung it was 35.5 µM; in the assay on UACC-62 melanoma it was 38.7 µM; in the assay with UO-31 renal it was 24.7 µM. The TGI in the assay on DU-145 prostate came to 37.7 µM; in the assay on 786-0 renal it was 28.9 µM; with K-562 leukemia it was 31.1 µM; in the assay with LOX IMVI melanoma it was 33.9 µM.
With `N#Cc1ncn(-c2ccccc2)c1N`, the TGI with UACC-257 melanoma, in the assay on ACHN renal, in the assay with IGROV1 ovarian, in the assay with NCI-H226 lung, with UACC-62 melanoma and with UO-31 renal was more than 100 µM in each case. In addition, the TGI in the assay with DU-145 prostate, with 786-0 renal, in the assay on K-562 leukemia and in the assay on LOX IMVI melanoma was more than 100 µM in each case.
Take `CC[C@@H](CCCC[C@@H]1CC[C@H]2CC(=O)C[C@@H]12)OC`: the TGI in the assay with UACC-257 melanoma, with ACHN renal, with IGROV1 ovarian, with NCI-H226 lung, with UACC-62 melanoma and in the assay on DU-145 prostate was more than 100 µM throughout. The TGI in the assay on 786-0 renal, in the assay with K-562 leukemia and in the assay with LOX IMVI melanoma was more than 100 µM in each case.
Take `CC(C)C1CC=NN1C(=O)OC(C)(C)C` (centres undefined): the TGI in the assay on UACC-257 melanoma, in the assay with ACHN renal, with IGROV1 ovarian, in the assay on NCI-H226 lung, in the assay with UACC-62 melanoma and in the assay on UO-31 renal was more than 100 µM throughout. Besides, the TGI with DU-145 prostate, with 786-0 renal, with K-562 leukemia and in the assay on LOX IMVI melanoma was more than 100 µM throughout.
For the compound `CN(C)CCN1C(=O)CC[C@@]2(C)C1=CC[C@@H]1[C@@H]2CC[C@@]2(C)[C@H]1CC[C@]2(C)O`, the TGI in the assay on UACC-257 melanoma, in the assay with ACHN renal, with IGROV1 ovarian, with NCI-H226 lung, with UACC-62 melanoma and in the assay on UO-31 renal was more than 100 µM in each case. The TGI in the assay on DU-145 prostate, in the assay on 786-0 renal, in the assay with K-562 leukemia and in the assay on LOX IMVI melanoma was more than 100 µM throughout.
As to `CSC(SC)=C1C(=O)NN=C1C`, the TGI in the assay on UACC-257 melanoma, in the assay with ACHN renal, in the assay with IGROV1 ovarian, with NCI-H226 lung, in the assay with UACC-62 melanoma and in the assay with UO-31 renal was more than 100 µM throughout. The TGI in the assay with DU-145 prostate, with 786-0 renal, in the assay on K-562 leukemia and in the assay with LOX IMVI melanoma was more than 100 µM each time.
